Data set [1] concerns MDA-MB-231/HER2 transfected cells. Nature of the data set: Cytotoxicity alamarBlue assay, MDA-MB-231/HER2 (HER2 hi). In kind it is cell-based. The settings on record: 48 h; for Cell viability %: mean ± sd, n=4. Here is the method: MDA-MB-231 breast cancer cells were transfected with plasmid HER2 WT Addgene, 16257) using Lipofectamine 3000 according to manufacturer's instructions. After passaging in the presence of 500 μg/ml Geneticin (Thermo Fisher, catalogue 10131035), cells with stable overexpression of HER2 WT were isolated by fluorescence activated single cell sorting using a MoFlo Astrios (Beckman Coulter). A clonal cell population isolated from this process was further passaged in Geneticin before a second round of cell sorting and screening for transgene expression. A selected clone was then further expanded and stocks of this cell line, referred to as MDA-MB-231/HER2, were cryopreserved to generate a master stock of stably transduced cells.
(§1) The cytotoxicity of Compound 71 (control) and Compound 123 (targeted) toward MDA-MB-231, and MDA-MB-231/HER2 transfected cells were evaluated via alamarBlue assays. Cells were seeded at a density of 5×10^3, in 96-well plates and incubated overnight. Cells were then treated with indicated concentrations of test compositions for 48 h. AlamarBlue (Thermo Fisher, DAL1025) was added during the final 4 h of incubation. Reduction of alamarBlue in living cells yields a red fluorescent metabolite that can be read on a plate reader (560 nm excitation/610 nm emission). Cell viability and subsequent IC50 was determined from the blank corrected dose-response curves, with 4-parameter nonlinear nonlinear curve fit, variable slope (four parameters) in GraphPad Prism 7.02. […] Compound 123 (targeted) is approximately 140-fold increase in MDA-MB-231/HER2 cell growth inhibition compared to Compound 71 (control).

The subject of data set [2] is MDA-MB-231 cells. Nature of the data set: Cytotoxicity alamarBlue assay, MDA-MB-231 (HER2 lo). The class given is cell-based. The settings on record: 48 h; for Cell viability %: mean ± sd, n=4. The procedure: as §1
The subject of data set [3] is SKOV-3 cells. The data set is described as follows: In vitro association study (flow cytometry), SKOV-3. In kind it is cell-based, human. Here is the method: The HER2-expressing human metastatic carcinoma cell line MDA-MB-453 (ATCC HTB-131) and the HER2-lo epithelial adenocarcinoma cell line MDA-MB-231 (ATCC HTB-26) were maintained in Dulbecco's Modified Eagle's Medium (DMEM) containing 10% FBS and penicillin-streptomycin (100 U/mL) at 37° C. under a 5% CO2 humidified atmosphere and subcultured prior to confluence using trypsin. Human adenocarcinoma ovary cell line SKOV-3 (ATCC® HTB-77) cells were maintained in RPMI media with the addition of 10% (v/v) FBS and penicillin-streptomycin (100 U/mL) at 37° C. in a 5% CO2 humidified atmosphere and subcultured prior to confluence.
MDA-MB-231, MDA-MB-231/HER2 (HER2 knock in) (as described in Ex 6 above), or SKOV-3 cells were seeded in a 24-well plate (1×10^5 cells per well) in 500 μL of appropriate growth media with the addition of 10% (v/v) fetal bovine serum (FBS) and incubated with Compound 36 or Compound 41 at 3.33 nM, with incubation time varied from 1 to 24 h at 37° C. in a 5% CO2 humidified atmosphere. […] Cellular binding and association of sample were then determined through flow cytometry by the acquisition of the signal from Cy5.
To measure internalisation kinetics, nanobody-dendrimer was incubated with cells for 24, 4, 1, 0.5, and 0.1 hours at 37° C. before unbound nanobody-dendrimer was removed by washing and analysed by flow cytometry.

Data set [4] relates to MDA-MB-231/HER2 (HER2 knock in) cells. The data set is described as follows: In vitro association study (flow cytometry), MDA-MB-231/HER2. In kind it is cell-based, human.
In data set [5] the test system is SKOV-3 cells. The data set is described as follows: GI50 panel (MTT assay), SKOV-3. The class given is cell-based.
Data set [6] relates to NCI-N87 cells. Nature of the data set: GI50 panel (MTT assay), NCI-N87. In kind it is cell-based.
For data set [7], the system named is OE-19 cells. The data set is described as follows: GI50 panel (MTT assay), OE19. The class given is cell-based.
The subject of data set [8] is MDA-MB-231 cells. The data set is described as follows: Confocal cellular uptake, MDA-MB-231. In kind it is cell-based. The settings on record: MDA-MB-231, 3.33 nM, 24 h. The procedure: MDA-MB-231, MDA-MB-231/HER2 and SKOV-3 cells were plated at 1.0×10^4 cells per well into μ-slide 8-well chambered coverslip (ibidi) and allowed to adhere overnight at 37° C., 5% CO2. Compound 71 and Compound 123 (3.33 nM) were then added and allowed to incubate for 1, 3, 6, and 24 h. The cells were washed and then fixed with 1% paraformaldehyde for 20 min at room temperature. The cell membrane was stained with Alexa Fluor 488-wheat germ agglutinin (AF488-WGA, 5 μg mL^−1) in DPBS at room temperature for 10 min. The cell nuclei were counterstained with 4′,6-diamidino-2-phenylindole (DAPI, 2 μg mL^−1) in DPBS at room temperature for 10 min. Fluorescence images and optical sections were collected using a confocal microscope (Leica SP8). Images were processed with Fiji (Image J 1.52n).

Data set [9] relates to MDA-MB-231 cells. Nature of the data set: GI50 panel (MTT assay), MDA-MB-231. In kind it is cell-based.
Data set [10] concerns SK-Br-3 cells. The data set is described as follows: GI50 panel (MTT assay), SK-BR-3. The class given is cell-based.
In data set [11] the test system is MDA-MB-231 cells (HER2 lo). The data set is described as follows: In vitro association study (flow cytometry), MDA-MB-231. The settings on record: MDA-MB-231, over 24 h, result in words. In kind it is cell-based, human.
Data set [12] concerns BT474 tumours. Nature of the data set: Radiotherapeutic efficacy (177Lu) in BT474 xenograft model. In kind it is in vivo, Balb/c nude mice. To be noted: 177Lu-labelled test articles, IV. Here is the method:
Healthy in female Balb/c nude mice (aged 9 weeks) were obtained from the Animal Resource Centre, Western Australia. A total of four mice per dosing group were initially implanted with estrogen pellets (17Beta-estradiol 0.72 mg/pellet 60 Day Release; Innovative Research of America) and then on day 2 were innoculated subcutaneously in the breast mammary fat pad with 10×10^6 BT474 cells in PBS:Matrigel (1:1). Mice were weighed, and tumours measured 2-3 times weekly using electronic callipers. Tumour volume (mm^3) were calculated as ((length (mm)×((width (mm))^2)/2. Mice were randomised into eight dosing groups outlined in the Table below as tumours reached mean volumes of approximately 100 mm^3 (approximately 5 weeks from implantation of cells).
Samples of each solution were taken and mixed 1:1 with 50 mM DTPA. 5 μL of each DTPA incubated sample or neat solution was spotted on TLC paper (Agilent iTLC-SG Glass microfiber chromatography paper impregnated with silica gel) and run with 50:50 H2O:ethanol. Detection of radiolabelled species migration was then achieved using an Eckert and Ziegler Mini-Scan and Flow-Count system. […] Control experiments were conducted to monitor the elution behaviour of free ^177Lu and ^177Lu bound to DTPA for quality control. […]

In data set [13] the test system is MDA-MB-231/HER2 tumours. The data set is described as follows: Tumour distribution of tritium-labelled MMAE-conjugated dendrimers. The settings on record: 3H label, 0.5 μCi via tail vein, 48 h, mean±SEM. In kind it is in vivo, NOD/SCID mice. The procedure:
MDA-MB-231/HER2 cells (5×10^6 cells in 50 μL of PBS:Matrigel) were transplanted into the 4th mammary fat pad of female NOD/SCID mice (5-7 weeks old) subcutaneously. Solid tumours were allowed to grow to 100 mm^3 (approximately 3-4 weeks). The mice were divided into two different groups, consisting of six mice in each group. Compound 72 (control group) or Compound 127 (targeted group) (0.5 μCi in 100 μL, PBS pH 7) was then injected via tail vein under isoflurane sedation. The mice were anaesthetised with isoflurane 48 h later, and blood collected via cardiac puncture immediately prior to cervical dislocation. Selected organs (including tumour, liver, spleen, kidney, pancreas, lung, heart and brain) were subsequently removed, weighed and processed for tritium (^3H) biodistribution.

The target of data set [14] is T1, HER2 (human epidermal growth factor receptor 2) on cells (human, UniProt P04626 23-1255).
T1 construct: whole, on cells; also called ERBB2; HER2 receptor
The data set is described as follows: flow cytometry (Cy5), MDA-MB-231/HER2 cells, 24 h.

In data set [15] the target is T1, HER2 (human epidermal growth factor …). Nature of the data set: flow cytometry (Cy5), SKOV-3 cells, 24 h.

For “(MeTzPh)PEG4CO-NHPEG24CO—[N(PN)2][Lys]2[Lys]4[Lys]8[((α-NHCy5)1(α-NHGlu-VC-PAB-MMAE)7)(ε-NH-COPEG1100)8], G3 [Compound 71]”, the Cell viability % in data set [1] (MDA-MB-231/HER2, MMAE concentration 1 × 10^−5 M) turned out to be 61.6 ± 3.1%; in data set [1] (MDA-MB-231/HER2, MMAE concentration 1 × 10^−6 M), 78.2 ± 9.1%; in data set [1] (MDA-MB-231/HER2, MMAE concentration 1 × 10^−7 M), 96.1 ± 3.6%; in [1] (MDA-MB-231/HER2, MMAE concentration 1 × 10^−8 M), 95.4 ± 7.6%; in [1] (MDA-MB-231/HER2, MMAE concentration 5 × 10^−5 M), 49.9 ± 15.0%; in data set [2] (MDA-MB-231, MMAE concentration 1 × 10^−5 M) it was 94.2 ± 12.1%. Besides, the Cell viability % in data set [2] (MDA-MB-231, MMAE concentration 1 × 10^−6 M) amounted to 94.4 ± 8.2%; in data set [2] (MDA-MB-231, MMAE concentration 1 × 10^−7 M), 94.2 ± 12.5%; in data set [2] (MDA-MB-231, MMAE concentration 1 × 10^−8 M), 96.6 ± 11.7%; in [2] (MDA-MB-231, MMAE concentration 5 × 10^−5 M), 81.1 ± 5.4%. Further, the concentration for half-maximal inhibition (IC50) in [1] (MDA-MB-231/HER2, alamarBlue, MMAE concentration) is 2840 nM; in [2] (MDA-MB-231, alamarBlue, MMAE concentration), “Ambiguous”. Besides, the “mean fluorescence intensity (Cy5)” value in data set [3] (SKOV-3, 3.33 nM, 24 h, 37° C., mean±SD, n=3) is on record as 16.4±6.86; in data set [4] (MDA-MB-231/HER2, 3.33 nM, 24 h, 37° C., mean±SD, n=3), 16.05±1.89. The “binding towards cell line (flow cytometry)” value in data set [3] (SKOV-3, over 24 h, result in words) is listed as “minimal binding”; in data set [4] (MDA-MB-231/HER2, over 24 h, result in words) it was “minimal binding”; in data set [11], “minimal binding”. Besides, the GI50 is 1.6 µM in [5] (SKOV-3, MTT, 72 h, Kadcyla based on estimated weight ADC, footnote: based on MMAE drug equivalents); 2040 nM in data set [6] (NCI-N87, MTT, 72 h, Kadcyla based on estimated weight ADC, footnote: based on MMAE drug equivalents); 6.12 µM in data set [7] (OE19, MTT, 72 h, Kadcyla based on estimated weight ADC, footnote: based on MMAE drug equivalents); 12.5 µM in data set [9] (MDA-MB-231, MTT, 72 h, Kadcyla based on estimated weight ADC, footnote: based on MMAE drug equivalents); 948 nM in data set [10] (SK-BR-3, MTT, 72 h, Kadcyla based on estimated weight ADC, footnote: based on MMAE drug equivalents). Moreover, the “association with cells (confocal microscopy)” value in data set [8] was “little”.

As for “BHALys[Lys]2[Lys]4[Lys]8[Lys]16[Lys]32[(α-NHAc)30(α-NHDOTA)2(ε-NHCOPEG2000)32] [Compound RH-3-160]”, the “suppression of tumour growth” value in data set [12] is “effective in suppressing tumour growth”.

Regarding `CS(=O)(=O)CCNCc1ccc(-c2ccc3ncnc(Nc4ccc(OCc5cccc(F)c5)c(Cl)c4)c3c2)o1` [Lapatinib, reference compound], the 50% growth inhibitory concentration (GI50) came out at 7.2 µM in data set [5] (Homo sapiens, SK-OV-3, 72 h); 8.1 nM in data set [6] (Homo sapiens, NCI-N87, 72 h); 0.2 µM in data set [7] (Homo sapiens, OE19, 72 h); 112 µM in data set [9] (Homo sapiens, MDA-MB-231, 72 h); 138 nM in data set [10] (Homo sapiens, SK-BR-3, 72 h).

Take “(MeTzPh)PEG4CO-NHPEG24CO—[N(PN)2][Lys]2[^3H-Lys]4[Lys]8[(α-NHGlu-VC-PAB-MMAE)8(ε-NH-COPEG1100)8], G3 [Compound 72]”: in [13], the “accumulation in HER2 positive tumours” value is 1.88 % dose/g and the blood concentration is listed as 3.69 % dose/g.

B1: Nanobody*-N3/DBCO-NHCO-PEG12TCO/(MeTzPh)PEG4CO-NHPEG24CO-[N(PN)2][Lys]2[Lys]4[Lys]8[((α-NHCy5)1(α-NHGlu-VC-PAB-MMAE)7)(ε-NH-COPEG1100)8], Compound 123 (VHH)
VHH: EVQLVESGGSLVQPGGSLRLSCAASGFTFDDYAMSWVRQVPGKGLEWVSSINWSGTHTDYADSVKGRFTISRNNANNTLYLQMNSLKSEDTAVYYCAKNWRDAGTTWFEKSGSAGQGTQVTVSS
modifications: C-terminal # (unnatural amino acid, p-azido-phenylalanine) clicked to DBCO-NHCO-PEG12-TCO, joined to the tetrazine at the core of the G3 lysine dendrimer (1 Cy5, 7 Glu-VC-PAB-MMAE, 8 PEG1100)
notes: T0004 r280 names the protein Nanobody*; No synthesis paragraph for this compound; also called 2D3 nanobody targeted dendrimer
For the molecule B1, the “fold fluorescence over Compound 71 (untargeted control)” value in data set [14] is approximately 9 fold; in [15] it was approximately 16 fold.
